Some test systems named below: HL-60(TB) leukemia; HOP-92 NSCLC; HS 578T breast; MDA-MB-231 breast; NCI-H226 lung; NCI/ADR-RES ovarian; OVCAR-4 ovarian; SK-MEL-28 melanoma; SNB-75 CNS; UO-31 renal.
Holding throughout (assay): inhibition of tumour cell growth, NCI panel, 48 h

Two molecules from PubChem BioAssay (NCI) can be followed below.

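Tested at 5 concentrations; 48 h exposure; 96-well plates; endpoints linearly interpolated, else capped at highest concentration. Abbreviation: GI50, concentration required for 50% inhibition of growth. TGI: total growth inhibition.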

On to `CC(C)(C)C[C@H]1NC(C(=O)NCC[C@H](O)CO)[C@H](c2cccc(Cl)c2)[C@@]12C(=O)Nc1cc(Cl)c(F)cc12` (stereo not given in full), for which the GI50 with HL-60(TB) leukemia is 14.7 µM; in the experiment with HOP-92 NSCLC it was 13.3 µM; in the experiment on HS 578T breast, 16 µM; with MDA-MB-231 breast, 14.9 µM; in the experiment on NCI-H226 lung, 2.46 µM; with NCI/ADR-RES ovarian it was 37 µM. For the same molecule, the GI50 in the experiment on OVCAR-4 ovarian is 14.8 µM; in the experiment with SK-MEL-28 melanoma, 15.9 µM; in the experiment on SNB-75 CNS, 14.1 µM; with UO-31 renal, 5.13 µM. The TGI in the experiment on HL-60(TB) leukemia is 40.1 µM; in the experiment with HOP-92 NSCLC, 28.4 µM; in the experiment with HS 578T breast, 60.4 µM; in the experiment with MDA-MB-231 breast it was 32.4 µM; with NCI-H226 lung, 14.1 µM; in the experiment on NCI/ADR-RES ovarian, more than 100 µM. The TGI in the experiment with OVCAR-4 ovarian stood at 32.4 µM; in the experiment on SK-MEL-28 melanoma it was 30.5 µM; in the experiment with SNB-75 CNS it was 29.9 µM; in the experiment with UO-31 renal, 19.2 µM.

Consider `CCCCOc1ccc(NC(N)=Nc2ccc(Cl)cc2)cc1`, for which the TGI with HL-60(TB) leukemia is 22.5 µM; in the experiment on HOP-92 NSCLC it was 16 µM; in the experiment with HS 578T breast, 21 µM; with MDA-MB-231 breast it was 27.2 µM; with NCI-H226 lung it was 29 µM; in the experiment with NCI/ADR-RES ovarian, 18.9 µM. For the same molecule, the TGI in the experiment with OVCAR-4 ovarian came to 17.5 µM; in the experiment with SK-MEL-28 melanoma, 26.7 µM; in the experiment on SNB-75 CNS, 15.3 µM; with UO-31 renal, 9.6 µM.
